{"source": "patent US20230347344A1", "about": "“COMBINATION OF PHARMACOLOGICAL AND MICROFLUIDIC FEATURES FOR IMPROVED PLATELETS PRODUCTION” (HEMOSTOD SA, priority 2015, published 2023)", "key": {"[1]": {"tested_on": "platelets produced from megakaryocytes", "assay": "Activation of produced platelets by TRAP-6 (PAC1 binding, fibrinogen adhesion, tubulin/actin immunofluorescence)", "assay_type": "cell-based, human", "protocol": "Image acquisition was performed with an Axio Observer microscope (Zeiss) at 40×1.6-fold magnification with a QIClick-F-CLR-12 Digital CCD Camera (Q Imaging). Platelets are adherent to fibrinogen.\nFIG. 8 is a picture showing two colors flow cytometry analysis of platelets receptors with or without activation of the CD41/CD61 receptor by the agonist peptide of the PAR-1 thrombin receptor (TRAP6). (A) Histogram indicates, within the platelet gate, the % of PAC-1/CD42b positive elements before (black bars) or after (gray bars) TRAP-6 activation of platelets produced in the microfluidic device from megakaryocytes suspension in the absence (+/+2 h) or the presence (+/+2 h Ri) of ROCK inhibitor (Ri). […] No Ri was added during the culture stage. n=1.\nPlatelet production in the microfluidic device of geometry 2 was compared to control samples, consisting of platelet production from twenty-four hours static condition without the microfluidic chip. Expression of CD41 and CD42 antigens was characterized using a flow cytometer BD Fluorescence Accuri C6 ® (BD Biosciences, Le Pont de Claix, France). […] The number of antigenic sites is determined by converting the fluorescence intensity into corresponding numbers of monoclonal antibodies bound per platelet based on a calibrated bead standard curve. […]"}, "megakaryocytes [2]": {"tested_on": "megakaryocytes", "assay": "Platelet release in the microfluidic device after two hours of perfusion, hemocytometer counting", "assay_type": "cell-based, human", "conditions": "compound in suspension during 2 h perfusion stage, absent during culture stage (10 μM ROCK inhibitor; 6.25 μM nicotinamide)", "method": "CD34^+ cells were isolated from human umbilical cord blood (UCB) by an immunomagnetic technique (Miltenyi Biotec, Paris, France) as previously reported (see Poirault-Chassac et al, “Notch/Delta4 signaling inhibits human megakaryocytic terminal differentiation”, Blood, vol. 116, no 25, p. 5670-5678, 2010). These blood samples were obtained after informed consent and approval from our Institute Ethics Committee and in accordance with the Declaration of Helsinki. CD34^+ cells were cultured in a humid atmosphere at 37° C. in 5% CO2 in complete medium consisting of Iscove modified Dulbecco medium (IMDM; Gibco Life Technologies, Saint-Aubin, France) supplemented with 15% BIT 9500 serum substitute (Stem Cells Technologies, Grenoble, France), α-monothioglycerol (Sigma-Aldrich, Saint-Quentin Fallavier, France) and liposomes (phosphatidyl-choline, cholesterol and oleic acid; SigmaAldrich). Human recombinant stem cell factor (SCF, 20 ng/mL; Miltenyi Biotec) and thrombopoietin peptide agonist AF13948 (TPO, 50 nM) (see Dunois-Lardé et al, “Exposure of human megakaryocytes to high shear rates accelerates platelet production”, Blood, vol. 114, no 9, p. 1875-1883, 2009) were added once at day 0 to the culture medium followed by addition of 20 nM TPO without SCF at day 5. Mature megakaryocytes are obtained after 12-14 days of culture. […]"}, "[3]": {"tested_on": "platelets produced from megakaryocytes", "assay": "Flow cytometry analysis of platelet receptors (CD41, CD42b, CD61, CD49b) on produced platelets", "assay_type": "cell-based, human", "conditions": "for proportion of platelets expressing CD42b receptor: compound in megakaryocyte suspension during 2 h perfusion vs without (10 μM ROCK inhibitor; 25 μM GM6001); for proportion of CD41+/CD42b+ platelet: compound during 2 hours of perfusion, without or with previous introduction during culture stage", "method": "(§1) CD34^+ cells were isolated from human umbilical cord blood (UCB) by an immunomagnetic technique (Miltenyi Biotec, Paris, France) as previously reported (see Poirault-Chassac et al, “Notch/Delta4 signaling inhibits human megakaryocytic terminal differentiation”, Blood, vol. 116, no 25, p. 5670-5678, 2010). These blood samples were obtained after informed consent and approval from our Institute Ethics Committee and in accordance with the Declaration of Helsinki. CD34^+ cells were cultured in a humid atmosphere at 37° C. in 5% CO2 in complete medium consisting of Iscove modified Dulbecco medium (IMDM; Gibco Life Technologies, Saint-Aubin, France) supplemented with 15% BIT 9500 serum substitute (Stem Cells Technologies, Grenoble, France), α-monothioglycerol (Sigma-Aldrich, Saint-Quentin Fallavier, France) and liposomes (phosphatidyl-choline, cholesterol and oleic acid; SigmaAldrich). Human recombinant stem cell factor (SCF, 20 ng/mL; Miltenyi Biotec) and thrombopoietin peptide agonist AF13948 (TPO, 50 nM) (see Dunois-Lardé et al, “Exposure of human megakaryocytes to high shear rates accelerates platelet production”, Blood, vol. 114, no 9, p. 1875-1883, 2009) were added once at day 0 to the culture medium followed by addition of 20 nM TPO without SCF at day 5. Mature megakaryocytes are obtained after 12-14 days of culture. Removal of platelets formed during culture and immediately prior to shear exposure was performed by means of a BSA gradient according to the methods reported in (Robert A, Cortin V, Gamier A, Pineault N. Megakaryocyte and platelet production from human cord blood stem cells. Methods Mol Biol. 2012; 788: 219-47). The concentration was then adjusted to 200 000 megakaryocytes/mL. 10 μM ROCK inhibitor (Y27632, Sigma Aldrich, Saint Quentin Fallavier, France) may be added to the culture of megakaryocytes at day 8 of culture. Addition of 10 μM ROCK inhibitor was performed before introducing megakaryocytes suspension into the inlet chamber of the microfluidic device. 6.25 μM nicotinamide (N0636, Sigma Aldrich, Saint Quentin Fallavier, France) was added to the culture of megakaryocytes at day 8 of culture. Addition of 6.25 μM nicotinamide was performed before introducing megakaryocyte suspension into the inlet chamber of the microfluidic device. 20 μM blebbistatin (203390, Calbiochem) was added to the culture of megakaryocytes at day 8 of culture. Addition of 20 μM blebbistatin was performed before introducing megakaryocyte suspension into the inlet chamber of the microfluidic device. 10 μM latrunculin-A (sc202691, Santa Cruz Biotechnology) was added to the culture of megakaryocytes at day 8 of culture. Addition of 10 μM latrunculin-A was performed before introducing megakaryocyte suspension into the inlet chamber of the microfluidic device. 25 μM GM6001 (ab120845, Abcam) was added to the culture of megakaryocytes at day 8 of culture. Addition of 25 μM GM6001 was performed before introducing megakaryocyte suspension into the inlet chamber of the microfluidic device\nPlatelet production in the microfluidic device of geometry 2 was compared to control samples, consisting of platelet production from twenty-four hours static condition without the microfluidic chip. Expression of CD41 and CD42 antigens was characterized using a flow cytometer BD Fluorescence Accuri C6 ® (BD Biosciences, Le Pont de Claix, France). Platelets were incubated with fluorescein isothiocyanate (FITC)-conjugated anti-human CD41 (αIIb), R-phycoerythrin (PE)-conjugated anti-human CD42b (GPIbα) (both from Beckman Coulter, Villepinte, France) and FITC-conjugated anti-human activated αIIbb3 (BD Biosciences) during 15 minutes at 22° C., Controls were performed using FITC mouse IgG1 (Beckman Coulter), PE mouse IgG1 (Beckman Coulter). Single color flow cytometry analysis of platelet receptors was performed using the GP screen assay (Biocytex, Marseille, France). […]"}, "megakaryocytes [4]": {"tested_on": "megakaryocytes", "assay": "Megakaryocyte capture and elongation in the microfluidic device (surface density of captured and elongated megakaryocytes)", "assay_type": "cell-based, human", "conditions": "for elongation process and beads-on-a-thread structure formation: compound added to megakaryocyte suspension during perfusion (10 μM ROCK inhibitor; 6.25 μM nicotinamide)", "method": "as §1\nAll the devices are composed of 16 parallel channels organized in a serpentine shape (FIG. 16). The channels were textured on the straight parts (13.2 cm long) and patterned with the parameters: r=15 μm, H=50 μm, H/h=1.\nThe microfluidic chip was set on the stage of an inverted microscope (DMI6000 B, Leica Microsystems GmbH, Germany). A computer assisted motorized stage control was used to record positions along the channel length. We recorded observation field positions and alternated recording images between them along the experiment time. Differential interference contrast objective was used to record movies and images between 10× and 40×. A CMOS high-speed camera (Fastcam SA3, Photron, USA) was used to record images at frequencies from 0.5 to 1500 Hz.\nSurface captured cells were counted manually from the recorded channel images, and cells in suspension were counted with a hematocytometer."}, "megakaryocytes [5]": {"tested_on": "megakaryocytes", "conditions": "cited from earlier work; for megakaryocyte ploidy / polyploidization: culture conditions, literature"}, "[6]": {"conditions": "10 μM ROCK inhibitor in suspension during perfusion, absent during culture stage, count after 35 min of perfusion"}, "[7]": {"conditions": "channels coated at 40 μg·mL^−1, t=35 min, ROCK inhibitor in culture (day 8) and perfusion"}}}
{"compound": "O=S(=O)(c1cccc2c(O)nccc12)N1CCCNCC1", "note": "[ROCK inhibitor, 1-(1-Hydroxy-5-isoquinolinesulfonyl)homopiperazine]", "values": [{"measurement": "tubulin conformation of produced platelets upon TRAP-6 stimulation", "setting": "[1]; ROCK inhibitor during 2 h perfusion, platelets adherent to fibrinogen, FIG. 7", "value": "tubulin conformation typical of a transient activation"}, {"measurement": "conformation of the αIIbβ3 receptors (PAC1 binding) upon TRAP-6 stimulation", "setting": "[1]; platelets from suspension with ROCK inhibitor, FIGS. 8 and 9", "value": "activated conformation"}, {"measurement": "platelet release vs suspension without compound", "setting": "megakaryocytes [2]", "value": "significant higher platelet release"}, {"measurement": "characteristics of produced platelets (CD61, CD42b, CD49b receptor density) vs platelets isolated from blood", "setting": "[3]; ROCK inhibitor during 2 h perfusion, FIG. 6", "value": "comparable to those of natural platelets"}, {"measurement": "proportion of platelets expressing CD42b receptor", "setting": "[3]", "value": "higher"}, {"measurement": "captured megakaryocytes density, ROCK inhibitor added vs not added", "setting": "megakaryocytes [4]; [6]", "value": "1.42±0.13", "unit": "fold"}, {"measurement": "elongated megakaryocytes density, ROCK inhibitor added vs not added", "setting": "megakaryocytes [4]; [6]", "value": "2.98±0.28", "unit": "fold"}, {"measurement": "elongation process and beads-on-a-thread structure formation", "setting": "megakaryocytes [4]", "value": "No differences"}]}
{"compound": "C/C1=C/C(=O)O[C@@H]2C[C@@H](CC[C@H](C)/C=C\\C=C\\CC1)O[C@@](O)([C@@H]1CSC(=O)N1)C2", "note": "[latrunculin, Latrunculin A]", "values": [{"measurement": "megakaryocyte ploidy / polyploidization", "setting": "megakaryocytes [5]", "value": "increase"}, {"measurement": "megakaryocyte apoptosis activation", "setting": "megakaryocytes [5]; literature (Avanzi et al)", "value": "increase"}, {"measurement": "proportion of CD41+/CD42b+ platelet", "setting": "[3]", "value": "higher"}]}
{"compound": "VWF: Human von Willebrand factor, used as surface coating of the platelet production channel", "values": [{"measurement": "captured megakaryocytes density, VWF coating vs BSA coating", "setting": "megakaryocytes [4]; [7]", "value": "5.86±1", "unit": "fold"}, {"measurement": "elongated megakaryocytes density, VWF coating vs BSA coating", "setting": "megakaryocytes [4]; [7]", "value": "7.72±1.32", "unit": "fold"}]}
{"compound": "CNC(=O)[C@H](Cc1c[nH]c2ccccc12)NC(=O)[C@@H](CC(=O)NO)CC(C)C", "note": "[GM6001, N-[(2R)-2-(hydroxamidocarbonylmethyl)-4-methylpentanoyl]-L-tryptophan methylamide]", "values": [{"measurement": "proportion of platelet CD42b+", "setting": "[3]; GM6001 during the culture as well as during the 2 hours perfusion stage", "value": "increased"}, {"measurement": "proportion of platelets expressing CD42b receptor", "setting": "[3]", "value": "higher"}]}
{"compound": "Cc1ccc2c(c1)C(=O)C1(O)CCN(c3ccccc3)C1=N2", "note": "(centres unmarked) [blebbistatin, 1-Phenyl-1,2,3,4-tetrahydro-4-hydroxpyrrolo[2,3-b]-7-methylquinolin-4-one]", "values": [{"measurement": "proportion of CD41+/CD42b+ platelet", "setting": "[3]", "value": "higher"}]}
{"compound": "NC(=O)c1cccnc1", "note": "[nicotinamide, pyridine-3-carboxamide]", "values": [{"measurement": "megakaryocyte ploidy / polyploidization", "setting": "megakaryocytes [5]", "value": "increases"}, {"measurement": "platelet release vs suspension without compound", "setting": "megakaryocytes [2]", "value": "higher platelet release"}, {"measurement": "proportion of CD41+/CD42b+ platelet", "setting": "[3]", "value": "higher"}, {"measurement": "elongation process and beads-on-a-thread structure formation", "setting": "megakaryocytes [4]", "value": "No differences"}]}
